Source: patent US9848602B2, “Use of prothioconazole to induce host defence responses” (priority 2013, dated 2017)

Key:
[1] = system: PR1 (pathogenesis-related protein 1) gene (AT2G14610) promoter; experiment: Induction of defense gene expression, GFP reporter behind the PR1 promoter; assay type: in vivo, Arabidopsis thaliana; details: 300 ppm, 3 days after spraying, mock (background) set as 1.00
Procedure: Arabidopsis thaliana reporter plants containing the coding sequence of a green fluorescent protein (GFP) linked to the salicylate responsive promoter sequence of the PR1 (pathogenesis-related protein 1) gene (AT2G14610) were grown for five days and then sprayed with compounds. On the 3rd day after spraying, plant fluorescence was assessed with a MacroFluo instrument from Leica Microsystems (Wetzlar, Germany). Fluorescences were quantified with the MetaMorph Microscopy Automation & Image Analysis Software (Molecular Devices, Sunnyvale, Calif., United States).

[2] = system: Arabidopsis thaliana plants (gene expression); experiment: Induction of salicylic acid and pathogen response pathways, Affymetrix ATH1 gene expression analysis; assay type: in vivo; details: 500 g/ha spray; for total number of differentially expressed genes: p≦0.05, vs control
Procedure: Arabidopsis thaliana plants were grown on soil in climate controlled growth chambers for 33 days under defined conditions. For treatment Prothioconazole was formulated to result in a final concentration corresponding to 500 g/ha in a spray application. The plants were sprayed in biological replicates. A control group of similar grown plants was equally treated with a blank formulation. Aerial tissues of the treated plants were harvested 3 h and 6 h after treatment, frozen in liquid nitrogen and stored at −80° C. for further processing. Each biological replicate (3 per treatment and time point) consisted of a pool of 10 plants.
Total RNA was prepared from each sample using the RNeasy Midi kit from Qiagen #75142 according to the manufacturer's recommendations. The RNA was then transcribed into cDNA using Superscript II Reverse Transcriptase (Invitrogen). The biotin-labeled cRNA probes for hybridization were generated from the cDNA using the BioArray HighYield® RNA transcript labeling kit (T7) (Enzo Life Sceinces # ENZ42655-40) according the manufacturer's recommendations. The labelled cRNA probes were subsequently hybridized onto Affymetrix GeneChip Arabidopsis ATH1 Genome Arrays (cat.#900385).
The samples were analyzed using the Affymetrix GeneChip System. The resulting data were processed and analyzed using Genedata Refiner Array, Genedata Analyst, RobiNA (Lohse et al. 2012, Nucleic Acids Res) and MapMan (Usadel et al. 2009, Plant Cell Environment) software packages.

[3] = 3 h after treatment, >2-fold change, p≦0.05
[4] = 6 h after treatment, >2-fold change, p≦0.05

Question: Which “Relative fluorescence of GFP” value [1] does the source give for `CC(C)(C)C(O)(CCc1ccc(Cl)cc1)Cn1cncn1` (centres unmarked) [Tebuconazole] here?
Answer: 0.73

Question: Which results are given for `OC(Cc1ccccc1Cl)(Cn1[nH]cnc1=S)C1(Cl)CC1` (centres unmarked) [Prothioconazole, 2-[2-(1-chlorocyclopropyl)-3-(2-chlorophenyl)-2-hydroxypropyl]-1,2-dihydro-3H-1,2,4-triazole-3-thione]?
Answer: number of down-regulated genes [2, 3]: 142; number of up-regulated genes [2, 3]: 238; total number of differentially expressed genes ([2]; 3 h after treatment, >2-fold change): 380; induction of At1g57630 [Toll-Interleukin-Resistance domain-containing protein] ([2]; 6 h after treatment): 3.4 fold; induction of At1g66090 [TIR-NBS class of disease resistance protein] ([2]; 6 h after treatment): 2.4 fold; induction of At3g59930 [Defensin-like protein 206] ([2]; 6 h after treatment): 3 fold; induction of At4g36010 [pathogenesis-related thaumatin family protein] ([2]; 6 h after treatment): 3.8 fold; number of downregulated genes [2, 4]: 148; number of up-regulated genes [2, 4]: 299; total number of differentially expressed genes ([2]; 6 h after treatment, >2-fold change): 447; induction of At1g05680 (UDP-glucose: salicylic acid glucosyltransferase) ([2]; after 3 h): 3 fold; induction of At2g43820 (UDP-glucose: salicylic acid glucosyltransferase) ([2]; after 3 h): 2.5 fold; induction of At1g05680 (UDP-glucose: salicylic acid glucosyltransferase) ([2]; after 6 h): 5.5 fold; induction of At2g43820 (UDP-glucose: salicylic acid glucosyltransferase) ([2]; after 6 h): 2.5 fold; Relative fluorescence of GFP [1]: 2.04

Question: Which “Relative fluorescence of GFP” value [1] does the source give for `O=C(O)c1ccccc1O` [Salicylic acid, salicylic acid] here?
Answer: 1.96
